# Measurements taken from patent publication US8795222B2, “Device and method for treatment of surface infections with nitric oxide” (Pulmonox Technologies Corp., priority 2000, dated 2014).
# Columns and labels:
# S. aureus (ATCC) = experiment: Bacteriocidal time study, 200 ppm gNO, saline suspension; type: cell-based
# Procedure: (§1) Following the dose and time ranging studies, a series of experiments were performed to determine the time required to effectively induce a bacteriocidal effect with 200 parts per million of gNO, a concentration just above the dose used in the dose-ranging study, on a representative collection of drug resistant gram-positive and gram-negative strains of bacteria associated with clinical infection. A successful bacteriocidal effect was defined as a decrease in bacteria greater than 3 log10 cfu/ml. Further, C. albicans, Methicillin Resistant S. aureus (MRSA), a particularly resistant strain of P. aeruginosa from a cystic fibrosis patient, Group B Streptococcus, and M. smegmatis were also included to see if yeast, multi-drug resistant strains of bacteria, and actinomycetes have a similar response. The drug-resistant bacteria represent a variety of pathogens that contribute to both respiratory and wound infections.
# (§2) For these experiments, saline was selected as a suspension media because it would not mask the direct effect of gNO as a bacteriocidal, whereas fully supplemented growth medium might introduce external variables (e.g., buffer or react with gNO). Other media might also provide metabolites and replenish nutrients that produce enzymes that protect bacteria from oxidative and nitrosative damage, thereby masking the effect of gNO. […] In saline, the colonies were static but remained viable. This is similar to the approach of Webert and Jean's use of animal models. Webert K E, et al (2000), Effects of inhaled nitric oxide in a rat model of Pseudomonas aeruginosa pneumonia, Crit. Care Med, 28(7):2397-2405 and Jean D, et al., (2002) Beneficial effects of nitric oxide inhalation on pulmonary bacterial clearance, Critical Care Medicine. 30(2):442-7.
# (§3) The latent period was then followed by an abrupt death of all cells. Gram negative and gram positive bacteria, antibiotic resistant bacterial strains, yeast and mycobacteria were all susceptible to 200 ppm gNO. Of importance, is the observation that the two drug resistant bacteria strains were also susceptible.
# S. aureus (Clinical) = experiment: as above; type: cell-based
# Procedure: as §1, §2, §3
# Klebsiella sp. #3 = experiment: as above; type: cell-based
# Procedure: as §1, §2, §3
# Acinetobacter sp. = experiment: as above; type: cell-based
# Procedure: as §1, §2, §3
# Serracia sp. = experiment: as above; type: cell-based
# Procedure: as §1, §2, §3
# S. maltophilia = experiment: as above; type: cell-based
# Procedure: as §1, §2, §3
# Klebsiella sp. #1 = experiment: as above; type: cell-based
# Procedure: as §1, §2, §3
# Kiebsiella sp. #2 = experiment: as above; type: cell-based
# Procedure: as §1, §2, §3
# P. aeruginosa (ATCC) = experiment: as above; type: cell-based
# Procedure: as §1, §2, §3
# E. coli = experiment: as above; type: cell-based
# Procedure: as §1, §2, §3
# Enterobacter sp. = experiment: as above; type: cell-based
# Procedure: as §1, §2, §3
# collagen mRNA = experiment: mRNA expression after gNO exposure; type: cell-based
# From the text: Rather than applying exogenous collagenase for enzymatic debridement of necrotic tissue, exposing a wound with necrotic tissue to exogenous NO gas to upregulate endogenous collagenase may be more beneficial. When endogenous collagenase is released by the cell, it automatically releases TIMP's (tissue inhibitor of metalloproteinase). This ensures that the matrix degradation is coordinated and allows the establishment of sharp geographical boundaries of collagenolytic activity and the protection of areas of connective tissue from the activity of the enzyme. In contrast, use of exogenous collagenase material to debride a wound confers no protection to specific areas of the wound as it is active on every cell that comes in contact with it whether or not the effect is desired.
# Preferably, after the exposure of the wound to high concentration of nitric oxide gas for a first treatment period (e.g., 5-8 hours per day), the necrotic tissue may be mechanically removed easily and the concentration of nitric oxide gas can be decreased for a second treatment period. The low concentration of nitric oxide gas (e.g., at 5-20 ppm) delivered for the second treatment period may upregulate the expression of collagen mRNA leading to synthesis of new collagen to aid in the closure of the wound. […] The second treatment period may be for a period 7-16 hours per day. […]
# Fibroblast cells = experiment: Fibroblast viability study in gNO chamber; type: cell-based, human
# Procedure: Fibroblast cells obtained from adult patients undergoing elective reconstructive surgery were cultured in Dulbeco's Modified Eagle's Medium (DMEM), supplemented with 10% fetal bovine serum (FBS) and antibiotic-antimycotic preparation and divided into ten 25 cm^2 vented culture flasks (COSTAR). […] The NO exposure chamber was validated prior to the study to eliminate extraneous variables and ensure optimal conditions for fibroblast cell growth. Another four flasks (control group) were placed inside conventional culture incubator and exposed only to ambient humidified air at 37° C. Two flasks were separately harvested and counted as the number of cells at zero time. Following the treatment, fibroblast cells were harvested and evaluated for morphology, cell count, capacity to proliferate and medium pH.
# Cells under gNO appeared healthy and attached to the culture plates.
# Capability of cells to reattach to the culture plates within a specified time limit is commonly used as an indication of viability of cells in culture. Both the control and treated groups show a 70% attachment capacity within 1 hour of culturing.
smiles,measurement,setting,value
"[N]=O [gNO, nitric oxide]",LD100,S. aureus (ATCC),4 h
same,Latent Period*,S. aureus (ATCC),3 h
same,−2.5 Log10,S. aureus (ATCC); time to −2.5 log10 cfu/ml,3.3 hrs
same,LD100,S. aureus (Clinical),4 h
same,Latent Period*,S. aureus (Clinical),3 h
same,−2.5 Log10,S. aureus (Clinical); time to −2.5 log10 cfu/ml,3.7 hrs
same,LD100,Klebsiella sp. #3,6 h
same,Latent Period*,Klebsiella sp. #3,3 h
same,−2.5 Log10,Klebsiella sp. #3; time to −2.5 log10 cfu/ml,5.1 hrs
same,LD100,Acinetobacter sp.,6 h
same,Latent Period*,Acinetobacter sp.,4 h
same,−2.5 Log10,Acinetobacter sp.; time to −2.5 log10 cfu/ml,5 hrs
same,LD100,Serracia sp.,6 h
same,Latent Period*,Serracia sp.,4 h
same,−2.5 Log10,Serracia sp.; time to −2.5 log10 cfu/ml,4.9 hrs
same,LD100,S. maltophilia,4 h
same,Latent Period*,S. maltophilia,2 h
same,−2.5 Log10,S. maltophilia; time to −2.5 log10 cfu/ml,2.8 hrs
same,LD100,Klebsiella sp. #1,6 h
same,Latent Period*,Klebsiella sp. #1,3 h
same,−2.5 Log10,Klebsiella sp. #1; time to −2.5 log10 cfu/ml,3.5 hrs
same,LD100,Kiebsiella sp. #2,5 h
same,Latent Period*,Kiebsiella sp. #2,2 h
same,−2.5 Log10,Kiebsiella sp. #2; time to −2.5 log10 cfu/ml,4.1 hrs
same,LD100,P. aeruginosa (ATCC),3 h
same,Latent Period*,P. aeruginosa (ATCC),1 h
same,−2.5 Log10,P. aeruginosa (ATCC); time to −2.5 log10 cfu/ml,2.1 hrs
same,LD100,E. coli,5 h
same,Latent Period*,E. coli,3 h
same,−2.5 Log10,E. coli; time to −2.5 log10 cfu/ml,4.2 hrs
same,LD100,Enterobacter sp.,6 h
same,Latent Period*,Enterobacter sp.,4 h
same,−2.5 Log10,Enterobacter sp.; time to −2.5 log10 cfu/ml,5.3 hrs
same,collagen mRNA expression,collagen mRNA; fibroblast exposed to 5 ppm of NO,increased collagen mRNA expression
same,collagen expression,"collagen mRNA; high concentration, 200 ppm gNO, 24 hours and 48 hours",possible inhibition of collagen expression
same,attachment capacity,"Fibroblast cells; 160 ppm gNO, within 1 hour of culturing, control the same",70%
same,proliferation of fibroblast cells,"Fibroblast cells; 200 ppm NO, compared with control",positive effect of increasing proliferation
same,harmful effects on the fibroblast,"Fibroblast cells; around 200 ppm gNO, 24 and 48 hours",did not have harmful effects
same,"toxic effect, morphology and attachment",Fibroblast cells; gNO concentrations less than 200 ppm continuously for 48 hours,No toxic effect
